Test results: patent US20200354404A1, “PEPT[…], […] AND USES THEREOF” (priority 2019, published 2020)
Several values for one entry are separate records, joined by “and”; a condition that tells them apart may be missing. Identical values can stand only once. Like-named read-outs stand apart in the source and are kept apart here. Where no end group is shown, it is not given here.

Assays:
[1] = Stability of endomorphin-2 in mouse serum; type: in vitro ADME; conditions: read-out: amount (AUC O.D.254) in mouse serum less than amount originally placed
Excerpt: In addition, as the result of the rapid hydrolysis and enzymatic degradation, a number of peptides are not stable enough to be used in drug discovery, diagnosis, prevention and treatment of diseases.
A graph of stability of EM2 and K763 in mice serum is depicted in FIG. 11.

[2] = cited from earlier work
[3] = Animal studies (protection); conditions: in vivo
in vitro [4] = conditions: mouse, mouse serum
in vivo = conditions: male, Sprague-Dawley, rat, 1 mg/kg; for AUC(0-t): AUClast; for AUC(0-t) / MRT last: iv 1 mg/kg; for MRT last: MRTlast
OPRM-1 receptor = OPRM-1 receptor (Homo sapiens, UniProt P35372); assay: Binding to OPRM-1; conditions: FIG. 10
OPRM-1 receptor, sequence (P35372 whole entry): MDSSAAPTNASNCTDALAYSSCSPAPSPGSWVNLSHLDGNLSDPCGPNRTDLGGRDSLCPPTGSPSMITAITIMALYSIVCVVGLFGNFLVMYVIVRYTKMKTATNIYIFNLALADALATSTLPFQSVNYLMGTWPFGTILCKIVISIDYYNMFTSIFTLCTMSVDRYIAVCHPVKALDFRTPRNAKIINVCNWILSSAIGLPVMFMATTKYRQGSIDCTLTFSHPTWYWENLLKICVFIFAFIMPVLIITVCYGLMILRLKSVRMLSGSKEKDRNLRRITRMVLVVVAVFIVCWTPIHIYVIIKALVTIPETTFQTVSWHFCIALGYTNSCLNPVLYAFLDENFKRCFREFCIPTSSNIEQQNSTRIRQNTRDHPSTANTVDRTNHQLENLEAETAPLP
Excerpt: FIG. 10 are graphs depicting binding of K763 and Endomorphin-2 binding to OPRM-1.
The binding is depicted in FIG. 10.

[5] = iv 1 mg/kg
mice = assay: APAP-induced cytokines, liver enzymes and lethality in mice; type: in vivo
[6] = tested on: HMGB1-induced TNF secretion; assay: HMGB1-induced TNF secretion; type: cell-based; conditions: FIG. 7
IRTK = IRTK (Homo sapiens, UniProt P06213); conditions: Kato et al. 2009; cited from earlier work
IRTK, sequence (P06213 28-1382): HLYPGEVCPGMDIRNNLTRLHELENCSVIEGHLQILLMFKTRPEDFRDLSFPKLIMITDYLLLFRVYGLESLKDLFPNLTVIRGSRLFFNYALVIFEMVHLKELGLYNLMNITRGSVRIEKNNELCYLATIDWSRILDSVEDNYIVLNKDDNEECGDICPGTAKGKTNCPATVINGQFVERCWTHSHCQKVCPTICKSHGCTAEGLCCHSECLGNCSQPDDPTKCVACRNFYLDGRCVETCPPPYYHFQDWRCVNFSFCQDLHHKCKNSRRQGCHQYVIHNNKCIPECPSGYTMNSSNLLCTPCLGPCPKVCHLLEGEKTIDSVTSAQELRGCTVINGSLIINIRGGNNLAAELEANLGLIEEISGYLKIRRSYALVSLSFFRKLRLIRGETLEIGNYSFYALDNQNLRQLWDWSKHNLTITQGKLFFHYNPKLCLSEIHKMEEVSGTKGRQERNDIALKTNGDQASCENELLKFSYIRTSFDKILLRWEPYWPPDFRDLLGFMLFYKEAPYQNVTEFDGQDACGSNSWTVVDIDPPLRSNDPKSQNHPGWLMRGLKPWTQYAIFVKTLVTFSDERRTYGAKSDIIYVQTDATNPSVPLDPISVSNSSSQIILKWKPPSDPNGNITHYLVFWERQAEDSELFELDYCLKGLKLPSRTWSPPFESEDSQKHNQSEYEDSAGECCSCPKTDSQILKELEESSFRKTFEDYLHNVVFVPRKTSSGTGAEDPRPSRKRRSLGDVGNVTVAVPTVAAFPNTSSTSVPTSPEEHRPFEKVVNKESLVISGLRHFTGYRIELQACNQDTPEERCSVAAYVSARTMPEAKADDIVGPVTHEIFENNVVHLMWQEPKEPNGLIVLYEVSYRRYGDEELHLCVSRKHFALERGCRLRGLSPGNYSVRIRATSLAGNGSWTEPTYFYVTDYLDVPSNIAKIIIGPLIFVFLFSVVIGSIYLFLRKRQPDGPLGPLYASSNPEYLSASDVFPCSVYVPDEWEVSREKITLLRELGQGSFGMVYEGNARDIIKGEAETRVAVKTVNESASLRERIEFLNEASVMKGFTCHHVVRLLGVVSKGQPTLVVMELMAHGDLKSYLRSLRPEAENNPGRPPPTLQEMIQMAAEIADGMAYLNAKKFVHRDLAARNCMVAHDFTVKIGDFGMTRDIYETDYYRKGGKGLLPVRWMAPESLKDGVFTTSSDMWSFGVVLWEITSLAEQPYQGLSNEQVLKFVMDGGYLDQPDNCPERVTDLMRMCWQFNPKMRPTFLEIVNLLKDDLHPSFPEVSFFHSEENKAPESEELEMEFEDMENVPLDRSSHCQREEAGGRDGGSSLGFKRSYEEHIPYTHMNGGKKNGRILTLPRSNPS

in vitro [7] = conditions: mouse, serum
Method: Stability of Bradykinin amide and (1-9)-Aza-Bradykinin in serum was measured.

NC(=O)C(Cc1ccccc1)NC(=O)C(Cc1ccccc1)NC(=O)[C@@H]1CCCN1C(=O)C(N)Cc1ccc(O)cc1 (stereo partly drawn) [Endomorphin-2]
metabolised at 2 h [1]: ~95%

N[C@@H](Cc1ccccc1)C(=O)N[C@@H](CO)C(=O)N[C@@H](CO)C(=O)N[C@@H](CCC(=O)O)C(=O)O [FSSE, reference compound]
in vivo half-life ([2]; in vivo): less than 5 minutes
protection in animal studies (in words) [3]: protective
half-life (in vitro [4]): 60 min
half-life (in vivo): < 1 min

NC(=O)N(Cc1ccccc1)NC(=O)N(Cc1ccccc1)NC(=O)[C@@H]1CCCN1C(=O)N(N)Cc1ccc(O)cc1 [K763]
affinity for OPRM-1 compared with Endomorphin-2 (in words) (OPRM-1 receptor): stronger affinity than Endomorphin-2
binding to OPRM-1 receptor (in words) (OPRM-1 receptor): shown to bind

NC(=O)N(CCC(=O)O)NC(=O)[C@H](CO)NC(=O)[C@H](CO)NC(=O)N(N)Cc1ccccc1 [K883]
Plasma concentration ([5]; 0.50 hr, individual rats, 1 mg/kg): 3020 ng/mL and 2500 ng/mL and 3220 ng/mL
Plasma concentration ([5]; 1.0 hr, individual rats, 1 mg/kg): 814 ng/mL and 1160 ng/mL and 1300 ng/mL
Plasma concentration ([5]; 2.0 hr, individual rats, 1 mg/kg): 133 ng/mL and 130 ng/mL and 142 ng/mL
Plasma concentration ([5]; 4.0 hr, individual rats, 1 mg/kg): 17.0 ng/mL and 15.1 ng/mL and 17.1 ng/mL
Plasma concentration ([5]; 6.0 hr, individual rats, 1 mg/kg): 6.49 ng/mL and 4.04 ng/mL and 4.77 ng/mL
Plasma concentration ([5]; 8.0 hr, individual rats, 1 mg/kg): 2.0 ng/mL and 0.871 ng/mL and 1.68 ng/mL
tmax ([5]; individual rats): 0 h
AUClast ([5]; individual rats, 1 mg/kg): 3807 ng·h/mL and 3749 ng·h/mL
tmax, Mean ([5]; mean of 3 rats): 0 h
APAP-induced pro-inflammatory cytokines (in words) (mice; FIG. 8): reduction
APAP-induced serum liver enzymes (in words) (mice; FIG. 8): reduction
APAP-induced lethality in mice (in words) (mice; FIG. 9): reduced
HMGB1-induced TNF secretion (in words) [6]: inhibits
protection in animal studies (in words) [3]: protective
half-life (in vitro [4]): > 900 min
half-life (in vivo; in vivo half-life): > 69 min
level at 0.5 h (in vivo; iv): 2910 ng/mL
level at 1 h (in vivo; iv): 1090 ng/mL
level at 2 h (in vivo; iv): 135 ng/mL
level at 4 h (in vivo; iv): 16.6 ng/mL
level at 6 h (in vivo; iv): 5.1 ng/mL
level at 8 h (in vivo; iv): 1.52 ng/mL
AUC(0-t) (in vivo; iv, Mean, mean of 3 rats): 3780 ng·h/mL
AUC(0-t) (in vivo; iv, individual rats): 3770 ng·h/mL
MRT last (in vivo; iv, Mean, mean of 3 rats): 33.4 min
MRT last (in vivo; iv, individual rats): 32.1 min

Ac-Asp1-Ile2-Tyr3-Glu4-Thr5-NH2
IRTK phosphorylation (in words) (IRTK): inhibit

RPPGFSPFR [bradykinin]
in vivo half-life ([2]; background statement): less than 1 minutes
metabolised at 3 h (in vitro [7]): ~97%
